# Where “and” joins values, the source holds several entries; their conditions need not be identical. Equal entries are not always repeated.
# Experiments:
# Conditions in all cases: incubation time: 72 h
# CAL-148 [1] = assay: normalised viability (% of control), CellTiter-Blue; higher = more viable cells (about 100 = DMSO control)
# Experimental: (§1)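 DSRT, CellTiter-Blue viability, 72 h incubation. Signal is normalised to DMSO and benzethonium chloride controls. Value is the normalised response at dose 9.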
# CAL-51 = assay: as above
# Experimental: as §1
# CAL-85-1 [2] = assay: as above
# Experimental: as §1
# DU-4475 [3] = assay: as above
# Experimental: as §1
# HDQ-P1 [4] = assay: as above
# Experimental: as §1
# MDA-MB-453 = assay: as above
# Experimental: as §1
# HCC1599 [5] = assay: normalised viability (% of control), CellTiter-Blue; higher = more viable cells (100 = DMSO, 0 = benzethonium chloride kill control)
# Experimental: (§2)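 DSRT, CellTiter-Blue viability, 72 h incubation. Signal is normalised to DMSO and benzethonium chloride controls. Value is the normalised response at dose 1.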
# HCC1937 [6] = assay: as above
# Experimental: as §2
# Hs578T [7] = assay: as above
# Experimental: as §2
# MDA-MB-436 [8] = assay: as above
# Experimental: as §2
# BT-474 = assay: drug sensitivity score (DSS), CellTiter-Blue viability (DSS (AUC-based score)); higher = stronger viability inhibition; extreme values may be limits of the assay
# In short: (§3)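 Cells from breast cancer lines were grown with compound for 72 h in 384-well plates, using a 5- or 9-concentration series. CellTiter-Blue fluorescence (560/590 nm) served as the viability readout, normalised plate by plate to 0.1 % DMSO and a positive kill control. A drug sensitivity score was computed as the area under the fitted dose-response curve.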
# BT-549 = assay: as above
# In short: as §3
# CAL-120 = assay: as above
# In short: as §3
# CAL-148 [9] = assay: as above
# In short: as §3
# CAL-85-1 [10] = assay: as above
# In short: as §3
# DU-4475 [11] = assay: as above
# In short: as §3
# HCC1143 = assay: as above
# In short: as §3
# HCC1599 [12] = assay: as above
# In short: as §3
# HCC1937 [13] = assay: as above
# In short: as §3
# HDQ-P1 [14] = assay: as above
# In short: as §3
# Hs578T [15] = assay: as above
# In short: as §3
# MDA-MB-231 = assay: as above
# In short: as §3
# MDA-MB-436 [16] = assay: as above
# In short: as §3
# MDA-MB-468 = assay: as above
# In short: as §3
# MFM-223 = assay: as above
# In short: as §3
# SK-BR-3 = assay: as above
# In short: as §3
Structure (SMILES),normalised viability (CAL-51; 10000 nM),normalised viability (DU-4475 [3]; 10000 nM),normalised viability (HDQ-P1 [4]; 10000 nM),normalised viability (HCC1599 [5]; 1 nM),normalised viability (HCC1937 [6]; 1 nM),normalised viability (Hs578T [7]; 1 nM),normalised viability (MDA-MB-436 [8]; 1 nM),drug sensitivity score (BT-474),drug sensitivity score (BT-549),drug sensitivity score (CAL-120),drug sensitivity score (CAL-148 [9]),drug sensitivity score (CAL-85-1 [10]),drug sensitivity score (DU-4475 [11]),drug sensitivity score (HCC1143),drug sensitivity score (HCC1599 [12]),drug sensitivity score (HCC1937 [13]),drug sensitivity score (HDQ-P1 [14]),drug sensitivity score (Hs578T [15]),drug sensitivity score (MFM-223),drug sensitivity score (SK-BR-3),also measured
C=CC(=O)Nc1cc2c(Nc3ccc(F)c(Cl)c3)ncnc2cc1OCCCN1CCOCC1 [Canertinib],4.95%,6.91%,1.8%,94.8%,90.6%,103%,97.5%,18.5,6.86,6.69,7.47,11.9,2.6,3.63,1.14,7.24,14,4.83,5.96,27.4,normalised viability (CAL-148 [1]; 10000 nM): 29.8%; normalised viability (CAL-85-1 [2]; 10000 nM): 2.97%; normalised viability (MDA-MB-453; 10000 nM): 10.3%; drug sensitivity score (MDA-MB-231): 8.24; drug sensitivity score (MDA-MB-436 [16]): 11.6; drug sensitivity score (MDA-MB-468): 13.9
O=C(O)C1(C(=O)O)CCC1.[NH2-].[NH2-].[Pt+2] [Carboplatin],42.3%,63.2%,122%,91.3%,80.9%,125%,102%,0,0,0,2.02,0,0,0,0,0,0,0,1.39,0,normalised viability (CAL-148 [1]; 10000 nM): 44.6%; normalised viability (CAL-85-1 [2]; 10000 nM): 56.2%; normalised viability (MDA-MB-453; 10000 nM): 25.9%; drug sensitivity score (MDA-MB-231): 0; drug sensitivity score (MDA-MB-436 [16]): 0; drug sensitivity score (MDA-MB-468): 0
COc1cc2c(Oc3ccc4[nH]c(C)cc4c3F)ncnc2cc1OCCCN1CCCC1 [Cediranib],,,,,,,,0,0,0,0,0,0,0,0,0,0,0,0,0,normalised viability (CAL-148 [1]; 1000 nM): 113%; normalised viability (CAL-51; 1000 nM): 74.1%; normalised viability (CAL-85-1 [2]; 1000 nM): 102%; normalised viability (DU-4475 [3]; 1000 nM): 83.4%; normalised viability (HDQ-P1 [4]; 1000 nM): 94.6%; normalised viability (MDA-MB-453; 1000 nM): 77.9%; normalised viability (HCC1599 [5]; 0.1 nM): 82.5%; normalised viability (HCC1937 [6]; 0.1 nM): 113%; normalised viability (Hs578T [7]; 0.1 nM): 92%; normalised viability (MDA-MB-436 [8]; 0.1 nM): 94.8%; drug sensitivity score (MDA-MB-231): 0; drug sensitivity score (MDA-MB-436 [16]): 0; drug sensitivity score (MDA-MB-468): 0
Cc1ccc(-c2cc(C(F)(F)F)nn2-c2ccc(S(N)(=O)=O)cc2)cc1 [Celecoxib],90.6%,68.5%,80.3%,79%,96.7%,111%,104%,0,0,0,0,0,0,0,0,2.89,4.34,0,0,0,normalised viability (CAL-148 [1]; 10000 nM): 55.1%; normalised viability (CAL-85-1 [2]; 10000 nM): 63.4%; normalised viability (MDA-MB-453; 10000 nM): 34%; drug sensitivity score (MDA-MB-231): 0; drug sensitivity score (MDA-MB-436 [16]): 3.91; drug sensitivity score (MDA-MB-468): 0
Nc1ncn([C@H]2C[C@H](O)[C@@H](CO)O2)c(=O)n1 [Decitabine],66.7% and 70.4%,53.4% and 64.7%,97.9% and 90.5%,107% and 109%,95.8% and 102%,90.4% and 111%,94.8% and 84.5%,,4.59 and 2.2,0,,0,4.16 and 2.07,5.09 and 8.28,,3.95 and 4.59,0,0,0,2.77 and 1.44,drug sensitivity score (MDA-MB-468): 21.5 and 21.6
CCN(CC)CCCC(C)Nc1c2ccc(Cl)cc2nc2ccc(OC)cc12 (configuration not stated) [Mepacrine],12.3%,4.09%,6.19%,96.2%,86%,127%,101%,4.38 and 1.69,2.79 and 5,6.95 and 4.06,5.43 and 4.13,4.8 and 2.06,4.6 and 3.08,3.86 and 1.45,5.6 and 4.64,9 and 9.95,6.58 and 6.72,2.46 and 1.85,2.66 and 2.79,5.2 and 2.74,normalised viability (CAL-148 [1]; 990 nM): 35.4%; normalised viability (CAL-148 [1]; 10000 nM): 12.4%; normalised viability (CAL-51; 990 nM): 34.9%; normalised viability (CAL-85-1 [2]; 990 nM): 44.1%; normalised viability (CAL-85-1 [2]; 10000 nM): 15.1%; normalised viability (DU-4475 [3]; 990 nM): 30.9%; normalised viability (HDQ-P1 [4]; 990 nM): 23.8%; normalised viability (MDA-MB-453; 990 nM): 15.7%; normalised viability (MDA-MB-453; 10000 nM): 2.2%; normalised viability (HCC1599 [5]; 0.099 nM): 102%; normalised viability (HCC1937 [6]; 0.099 nM): 94.7%; normalised viability (Hs578T [7]; 0.099 nM): 113%; normalised viability (MDA-MB-436 [8]; 0.099 nM): 112%; drug sensitivity score (MDA-MB-231): 8.94 and 9.12; drug sensitivity score (MDA-MB-436 [16]): 6.69 and 2.28
